# Experimental data published in patent US8900444B2, “Switchable hydrophilicity solvents and methods of use thereof” (Queen's University at Kingston, priority 2009, dated 2014).
# “Also recorded” adds a separate entry of the source. Read-outs that look alike come from different tables or passages of the source.
# Experiments:
# Type in all cases: physicochemical
# [1] = Miscibility of amines with water in the absence of CO2 (Example 5A)
# Method: 1 mL of an appropriate amine was combined with 1 mL of H2O in a 4 mL vial, with the 1 and 2 mL volume lines marked. The vial was manually shaken and left to settle at room temperature. After the mixture settled, the number of phases was observed visually. This procedure was performed for all of the screened amines.
# [2] = Miscibility of amines with water in the presence of CO2 (Example 5B); settings: CO2 bubbled through amine/water mixture for at least one hour
# Method: All of the amines that formed a biphasic mixture in Example 5A were subjected to the following test. Carbon dioxide was bubbled through the amine/water biphasic mixture, via a syringe needle, for at least one hour. Care was taken to regulate the rate of the CO2 bubbling, so as not to cause evaporation of the amine. The liquid-liquid interface was observed over the course of CO2 bubbling, and a photo was taken after 60 minutes.
# [3] = Conversion of amine switchable hydrophilicity solvents back to hydrophobic form by heating (Example 5C); settings: 80 °C, approximately 60 minutes
# Method: All of the amines identified as switchable hydrophilicity solvents in Example 5B (except N,N-dimethylbutylamine) were subjected to the following test. The vial containing the single-phase amine/water/CO2 mixture prepared in example 5B was heated in an oil bath at 80° C. for approximately 60 minutes. The mixture was magnetically stirred, and phase separation was observed throughout the course of heating. In the case of the N1,N1,N4,N4-tetraethylbutane-1,4-diamine/water/CO2 mixture, 5 hours of heating was required to switch it back to its hydrophobic form.
# [4] = Visual and NMR study of amine switchable hydrophilicity solvents (Example 6); settings: for loss of volume after CO2 bubbling / time of CO2 bubbling to form one homogeneous solution / total volume after CO2 bubbling / number of layers formed without CO2: 1 mL amine + 1 mL D2O; for number of layers formed without CO2: room temperature
# Method: The following amines were evaluated in this series of experiments: N-ethylpiperidine, N,N-dimethylcyclohexylamine, and N,N-dimethylhexylamine. The sequence of experiments is described for one amine but was performed for all three. The visual observations are described in Table 3. 1,4-Dioxane was used as an internal standard for NMR spectroscopy.
# Amine (1 mL) was combined with D2O (1 mL) in a 10 mL graduated cylinder, which was then capped with a rubber septum. The cylinder was manually shaken and left to settle at room temperature, after which the mixture appeared as two transparent liquid phases. For each amine, this procedure was simultaneously conducted in 3 identical cylinders. From the aqueous (bottom) layer of one of the three cylinders, three 250 μL samples were withdrawn, combined with equal volumes of D2O and dioxane internal standard, and analyzed by ^1H NMR spectroscopy. The spectra were consistent with the amine in the aqueous phase being in its neutral form. The graduated cylinder from which the samples were taken was discarded.
# For each of two remaining graduated cylinders, carbon dioxide was bubbled through the amine/water biphasic mixture, via a syringe needle, for at least one hour. Care was taken to regulate the rate of the CO2 bubbling, so as not to cause significant evaporation of the amine. The mixture changed from a biphasic liquid mixture to a single homogeneous liquid phase. From one of the two graduated cylinders, a 300 μL sample of the homogenous liquid phase was withdrawn and mixed with an equal volume of D2O and a known quantity of dioxane internal standard. […] The graduated cylinder from which the sample was taken was discarded.
# The remaining graduated cylinder, containing the single-phase amine/water/CO2 mixture prepared above, was heated in an oil bath at 80 deg. C for 1 hour. Phase separation was observed. Three 250 μL samples of the aqueous (bottom) layer were withdrawn, combined with equal volumes of D2O and a known quantity of dioxane internal standard, and analyzed by NMR spectroscopy.
# [5] = Water miscibility of amidines in neutral form and after CO2; settings: for miscibility with water, neutral (unprotonated) amidine form: no CO2
# Source text: This represents relatively hydrophilic character. The amidines A-D are unsatisfactory for use as a switchable hydrophilicity solvent because they are insufficiently hydrophobic in their amidine form. […] Since such amidines are not separable from water after switching from their hydrophilic to hydrophobic forms, they are unsuitable for use in the present invention.
# Exposure of a 1:1 by volume mixture of two immiscible liquids, hydrophobic PA and water, to gaseous CO2, at 1 atmosphere, caused a conversion to a hydrophilic liquid comprising an aqueous solution of N,N,N′-tripropylbutyramidinium bicarbonate (PAB) (see FIG. 1 for the chemical scheme in which R^1-4 are propyl). NMR data for the PA/water system is presented in FIGS. 4 and 5 and IR data in FIG. 6. FIGS. 4A and 5A show ^1H and ^13C NMR data for PA. After switching, the detection of the N,N,N′-tripropylbutyramidinium bicarbonate salt was confirmed by ^1H and ^13C NMR as shown in FIGS. 4B and 5B.
# Similarly, exposure of a 1:1 by volume mixture of two immiscible liquids, hydrophobic BA and water, to gaseous CO2, at 1 atmosphere, caused a conversion to a hydrophilic liquid comprising an aqueous solution of N,N,N′-tributylpentanamidinium bicarbonate (BAB) (see FIG. 1 for the chemical scheme in which R^1-4 are butyl). NMR data for the […] is presented in FIGS. 7 and 8 and IR data in FIG. 9. […] show ^1H and ^13C NMR data for BA. After switching, the detection of the N,N,N′-tributylpentanamidinium bicarbonate salt was confirmed by ^1H and ^13C NMR as shown in FIGS. 6B and 7B. The hydrophilic aqueous solution of BAB was converted back into hydrophobic BA and water by heating at 80° C.
# [6] = Converting ammonium bicarbonate salt to amine by bubbling air at room temperature (Example 5D)
# Method: A homogeneous aqueous solution of dimethylcyclohexylammonium bicarbonate was prepared by mixing N,N-dimethylcyclohexylamine (1 mL), and H2O (1 mL) and bubbling with CO2 for 90 minutes. The 2.0 mL solution was placed in a 10 mL graduated cylinder with a magnetic stir bar and that was then stoppered with a rubber septum. Air was bubbled through the solution for a total of 28 hours, with constant stirring. […] Total volume loss after 28 hours was 0.1 mL.
# [7] = 1 mL amine + 1 mL H2O, room temperature, visual
# [8] = 2.0 mL aqueous solution, stirring
Structure (SMILES),"miscibility with water under air (absence of CO2) [1, 7]",miscibility with water after CO2 treatment [2],also measured
"CN(C)Cc1cc(CN(C)C)cc(CN(C)C)c1 [1,1′,1″-(benzene-1,3,5-triyl)tris(N,N-dimethylmethanamine)]",biphasic,single-phase,–
"CCCCCCCCCCCCN(C)C [N,N-dimethyldodecylamine, reference compound]",biphasic,biphasic,–
CCN(CC)CC [triethylamine],biphasic,single-phase,"miscibility with water under air (absence of CO2) ([1]; 1 mL amine + 1 mL H2O, room temperature, visual, listed as N,N,N-triethylamine): immiscible with water; miscibility with water after CO2 treatment ([2]; listed as N,N,N-triethylamine): became water-miscible; loss of amine during heating (excessive volatility) [3]: loss of amine"
CCN1CCCCC1 [N-ethylpiperidine],immiscible with water; also recorded: biphasic,became water-miscible; also recorded: single-phase,"loss of volume after CO2 bubbling [4]: (loss of 0.1 mL); time of CO2 bubbling to form one homogeneous solution [4]: took 60 min to form one; total volume after CO2 bubbling [4]: total volume is 1.9 mL; number of layers formed without CO2 [4]: formed 2 layers;; amine remaining in the aqueous phase after heating ([4]; 80 deg. C, 1 hour, NMR spectroscopy, dioxane internal standard): showed that approximately 49%; time of heating to separate into 2 layers ([4]; oil bath 80 deg. C): after 30 min, separated into 2; volume of top layer after heating ([4]; oil bath 80 deg. C): 0.7 mL. NMR spectroscopy"
"CCCN=C(CCC)N(CCC)CCC [PA, N,N,N′-tripropylbutyramidine]",–,–,"miscibility with water after CO2 trigger (amidinium bicarbonate form) ([5]; CO2 and water): became miscible; miscibility with water, neutral (unprotonated) amidine form [5]: immiscible with water"
"CCCCCCN=C(C)N(C)C [Me2N—C(═N-hexyl)Me, reference compound]",–,–,"miscibility with water, neutral (unprotonated) amidine form [5]: water-miscible"
"CCN(C)CC [N,N-diethyl-N-methylamine]",immiscible with water,became water-miscible,–
CN(C)C1CCCCC1.O=C(O)O [dimethylcyclohexylammonium bicarbonate],–,–,"total volume loss after 28 hours of air bubbling [6]: 0.1 mL; volume of bottom layer after 28 hours of air bubbling [6]: 1.6 mL; volume of top layer after 28 hours of air bubbling [6]: 0.3 mL; observation after 8 hours of air bubbling [6, 8]: no observed phase separation or volume loss; observation after 28 hours of air bubbling [6, 8]: a two-phase liquid mixture was observed"
"CN(C)CC1CC(CN(C)C)CC(CN(C)C)C1 (stereo not shown) [1,1′,1″-(cyclohexane-1,3,5-triyl)tris(N,N-dimethylmethanamine]",biphasic,single-phase,–
"CN(C)CCCCN(C)C [Me2NCH2CH2CH2CH2NMe2, reference compound]",miscible,–,–
"CCCN(CCC)CCCCN(CCC)CCC [N,N,N′,N′-tetrapropylbutane-1,4-diamine, reference compound]",biphasic,biphasic,miscibility with water after CO2 treatment ([2]; listed as Pr2NCH2CH2CH2CH2NPr2): immiscible
"CCCN(CCC)CCC [tripropylamine, reference compound]",biphasic,biphasic,–
"CN(C)CCN(C)C [N,N,N′,N′,-tetramethylethylenediamine, reference compound]",–,–,miscibility with water under air (absence of CO2) [1]: single-phase
"CN1CCCCC1 [N-methylpiperidine, reference compound]",single-phase,–,–
"CCN(CC)C1CCCCC1 [N,N-diethyl-N-cyclohexylamine]",immiscible with water,became water-miscible,–
"CCN1CCOCC1 [N-ethylmorpholine, reference compound]",single-phase,–,–
"CN(C)c1ccccc1 [N,N-dimethylaniline, reference compound]",biphasic,biphasic,–
"CCCN(CC)CCCCN(CC)CCC [N,N′-dipropyl-N,N′-diethylbutane-1,4-diamine]",biphasic,single-phase,"miscibility with water under air (absence of CO2) ([1]; 1 mL amine + 1 mL H2O, room temperature, visual, listed as EtPrNCH2CH2CH2CH2NEtPr): immiscible; miscibility with water after CO2 treatment ([2]; listed as EtPrNCH2CH2CH2CH2NEtPr): miscible"
CCCCN1CCCC1 [N-butylpyrrolidine],immiscible with water; also recorded: biphasic,became water-miscible; also recorded: single-phase,–
"CCN(C(C)C)C(C)C [N,N-diisopropylethylamine, reference compound]",biphasic,biphasic,–
"CCCCN(C)C [N,N-dimethylbutylamine]",biphasic,single-phase,–
"CCCCCCN(C)C [N,N-dimethylhexylamine]",biphasic,single-phase,"miscibility with water under air (absence of CO2) ([1]; 1 mL amine + 1 mL H2O, room temperature, visual, listed as dimethylhexylamine): immiscible with water; miscibility with water after CO2 treatment ([2]; listed as dimethylhexylamine): became water-miscible; loss of volume after CO2 bubbling [4]: (loss of 0.1 mL); time of CO2 bubbling to form one homogeneous solution [4]: took 75 min to form one; total volume after CO2 bubbling [4]: total volume is 1.9 mL; number of layers formed without CO2 [4]: formed 2 clear,; time of heating to separate into 2 layers ([4]; oil bath 80 deg. C): after 30 min solution has; volume of bottom (aqueous) layer after heating ([4]; oil bath 80 deg. C): 1 mL; volume of top layer after heating ([4]; oil bath 80 deg. C): 0.9 mL"
"C1CCC2=NCCCN2CC1 [DBU, 1,8-diazabicyclo-[5.4.0]-undec-7-ene, reference compound]",–,–,"miscibility with water, neutral (unprotonated) amidine form [5]: water-miscible"
"CCCCCCCCN(CCCCCCCC)CCCCCCCC [trioctylamine, reference compound]",biphasic,biphasic,–
